In US10758534B2 (Vertex Pharmaceuticals Incorporated, priority 2014, dated 2020):

Target: T1, F508del (Homo sapiens, UniProt P13569, DEL508-508)
T1 construct: expressed in transfected cells
Assay: Protocol 2: FRET membrane potential optical assay (VIPR), identification of correction compounds
Format: cell-based
Conditions: F508del CFTR modulator activity; compounds of Table 1; read-out: EC30
Procedure, shortened: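 Mouse NIH3T3 cells, stable F508del; cpd 16 hrs, 37° C., serum-free; pos ctrl 27° C. 16 hrs. Rinse in Krebs Ringers, dye load, then add 10 μM forskolin + 20 μM genistein with Cl^−-free (gluconate) medium; depolarization by FRET voltage dyes.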

T1 sequence (P13569 with tags, fused parts or gaps DEL508-508): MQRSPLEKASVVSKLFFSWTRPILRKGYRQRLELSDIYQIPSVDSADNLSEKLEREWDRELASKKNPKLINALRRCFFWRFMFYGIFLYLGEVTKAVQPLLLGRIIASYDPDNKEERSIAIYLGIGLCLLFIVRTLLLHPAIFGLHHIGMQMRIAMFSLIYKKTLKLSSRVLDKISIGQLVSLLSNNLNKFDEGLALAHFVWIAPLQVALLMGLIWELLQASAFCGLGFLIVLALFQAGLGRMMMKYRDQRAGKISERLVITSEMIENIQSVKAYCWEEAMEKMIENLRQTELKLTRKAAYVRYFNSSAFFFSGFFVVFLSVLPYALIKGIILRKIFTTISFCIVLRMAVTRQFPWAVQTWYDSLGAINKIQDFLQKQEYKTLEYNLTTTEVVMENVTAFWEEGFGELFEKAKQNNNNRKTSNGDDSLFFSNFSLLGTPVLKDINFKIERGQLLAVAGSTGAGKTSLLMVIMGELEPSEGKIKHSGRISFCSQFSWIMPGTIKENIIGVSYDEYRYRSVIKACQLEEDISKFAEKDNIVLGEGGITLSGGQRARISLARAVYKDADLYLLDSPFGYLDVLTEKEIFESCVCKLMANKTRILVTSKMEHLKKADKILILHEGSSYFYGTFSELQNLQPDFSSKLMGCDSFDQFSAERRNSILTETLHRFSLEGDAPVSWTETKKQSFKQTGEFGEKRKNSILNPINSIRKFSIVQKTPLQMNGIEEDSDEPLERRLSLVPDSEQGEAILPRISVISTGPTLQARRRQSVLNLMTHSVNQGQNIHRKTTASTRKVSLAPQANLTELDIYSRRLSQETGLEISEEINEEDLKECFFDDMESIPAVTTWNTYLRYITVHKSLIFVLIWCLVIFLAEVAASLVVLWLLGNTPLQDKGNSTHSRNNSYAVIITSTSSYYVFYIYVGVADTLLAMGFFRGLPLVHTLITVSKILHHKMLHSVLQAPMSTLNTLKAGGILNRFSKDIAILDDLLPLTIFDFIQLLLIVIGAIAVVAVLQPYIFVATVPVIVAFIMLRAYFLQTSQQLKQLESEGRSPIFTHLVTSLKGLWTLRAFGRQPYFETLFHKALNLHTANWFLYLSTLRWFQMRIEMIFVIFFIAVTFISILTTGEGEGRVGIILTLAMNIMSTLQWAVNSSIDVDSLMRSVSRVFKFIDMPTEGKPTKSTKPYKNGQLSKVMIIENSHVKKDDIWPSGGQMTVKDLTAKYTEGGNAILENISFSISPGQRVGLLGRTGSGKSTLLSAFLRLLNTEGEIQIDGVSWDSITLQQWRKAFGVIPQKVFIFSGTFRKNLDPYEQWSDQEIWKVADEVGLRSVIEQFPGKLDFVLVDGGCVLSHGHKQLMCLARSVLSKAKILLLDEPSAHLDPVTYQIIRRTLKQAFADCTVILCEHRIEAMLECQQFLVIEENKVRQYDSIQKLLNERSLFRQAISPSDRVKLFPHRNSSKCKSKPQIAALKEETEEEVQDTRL

SMILES | EC30
CC1CN(c2ncccc2C(=O)NS(=O)(=O)c2cccc(N3CCOC(C)C3)n2)C(C)(C)C1 (stereo not drawn) [Compound 2324, N—[[6-(2-methylmorpholin-4-yl)-2-pyridyl]sulfonyl]-2-(2,2,4-trimethylpyrrolidin-1-yl)pyridine-3-carboxamide] | 3000 to 10000 nM
CCOCCOCCOc1ccn(-c2ccc(C(=O)NS(=O)(=O)c3cccnc3N)c(N3C[C@@H](C)CC3(C)C)n2)n1 [Compound 2326, N-[(2-amino-3-pyridyl)sulfonyl]-6-[3-[2-(2-ethoxyethoxy)ethoxy]pyrazol-1-yl]-2-[(4S)-2,2,4-trimethylpyrrolidin-1-yl]pyridine-3-carboxamide] | < 3000 nM
COc1ccc(-c2ccc(C(=O)NS(=O)(=O)N3CC[C@H](N)C3)c(N3C[C@@H](C)CC3(C)C)n2)cc1 [Compound 2327, N-[(3S)-3-aminopyrrolidin-1-yl]sulfonyl-6-(4-methoxyphenyl)-2-[(4S)-2,2,4-trimethylpyrrolidin-1-yl]pyridine-3-carboxamide] | 3000 to 10000 nM
CC(=O)c1ccc(Nc2cccc(S(=O)(=O)NC(=O)c3cccnc3N3CC(C)CC3(C)C)n2)cc1 (stereo not drawn) [Compound 2328, N—[[6-(4-acetylanilino)-2-pyridyl]sulfonyl]-2-(2,2,4-trimethylpyrrolidin-1-yl)pyridine-3-carboxamide] | 3000 to 10000 nM
CC1CN(c2ncccc2C(=O)NS(=O)(=O)c2cccc(OCCC3CCOCC3)n2)C(C)(C)C1 (stereo not drawn) [Compound 2329, N—[[6-(2-tetrahydropyran-4-ylethoxy)-2-pyridyl]sulfonyl]-2-(2,2,4-trimethylpyrrolidin-1-yl)pyridine-3-carboxamide] | < 3000 nM
CC1CCN(c2cccc(S(=O)(=O)NC(=O)c3cccnc3N3CC(C)CC3(C)C)n2)CC1 (stereo not drawn) [Compound 2330, N—[[6-(4-methyl-1-piperidyl)-2-pyridyl]sulfonyl]-2-(2,2,4-trimethylpyrrolidin-1-yl)pyridine-3-carboxamide] | < 3000 nM
Cc1cccc(C)c1Oc1nc(-c2cc(F)cc(OCC(C)C)c2)ccc1C(=O)NS(=O)(=O)c1ccc(O)c(N)n1 [Compound 2331, N-[(6-amino-5-hydroxy-2-pyridyl)sulfonyl]-2-(2,6-dimethylphenoxy)-6-(3-fluoro-5-isobutoxy-phenyl)pyridine-3-carboxamide] | < 3000 nM
CC1CN(c2ncccc2C(=O)NS(=O)(=O)c2cccc(Oc3cccc(F)c3)n2)C(C)(C)C1 (stereo not drawn) [Compound 2332, N—[[6-(3-fluorophenoxy)-2-pyridyl]sulfonyl]-2-(2,2,4-trimethylpyrrolidin-1-yl)pyridine-3-carboxamide] | < 3000 nM
CC1CN(c2ncccc2C(=O)NS(=O)(=O)c2cccc(Oc3cccc4cccnc34)n2)C(C)(C)C1 (stereo not drawn) [Compound 2333, N—[[6-(8-quinolyloxy)-2-pyridyl]sulfonyl]-2-(2,2,4-trimethylpyrrolidin-1-yl)pyridine-3-carboxamide] | 3000 to 10000 nM
COc1cc(F)c(F)cc1-c1ccc(C(=O)NS(=O)(=O)c2cccnc2N)c(N2C[C@@H](C)CC2(C)C)n1 [Compound 2334, N-[(2-amino-3-pyridyl)sulfonyl]-6-(4,5-difluoro-2-methoxy-phenyl)-2-[(4S)-2,2,4-trimethylpyrrolidin-1-yl]pyridine-3-carboxamide] | < 3000 nM
CC1CN(c2ncccc2C(=O)NS(=O)(=O)c2cccc(NCCCCNC(=O)OC(C)(C)C)n2)C(C)(C)C1 (stereo not drawn) [Compound 2335, tert-butyl N—[4-[[6-[[2-(2,2,4-trimethylpyrrolidin-1-yl)pyridine-3-carbonyl]sulfamoyl]-2-pyridyl]amino]butyl]carbamate] | 3000 to 10000 nM
CC1CCC(Oc2cccc(S(=O)(=O)NC(=O)c3cccnc3N3CC(C)CC3(C)C)n2)CC1 (stereo not drawn) [Compound 2336, N—[[6-(4-methylcyclohexoxy)-2-pyridyl]sulfonyl]-2-(2,2,4-trimethylpyrrolidin-1-yl)pyridine-3-carboxamide] | < 3000 nM
CC1CN(c2ncc(-c3ccc(C(F)(F)F)cc3)cc2C(=O)NS(=O)(=O)c2cccc(N)n2)C(C)(C)C1 (stereo not drawn) [Compound 2337, N-[(6-amino-2-pyridyl)sulfonyl]-5-[4-(trifluoromethyl)phenyl]-2-(2,2,4-trimethylpyrrolidin-1-yl)pyridine-3-carboxamide] | < 3000 nM
CC1CN(c2ncccc2C(=O)NS(=O)(=O)c2cccc(Oc3cccc4[nH]ccc34)n2)C(C)(C)C1 (stereo not drawn) [Compound 2338, N—[[6-(1H-indol-4-yloxy)-2-pyridyl]sulfonyl]-2-(2,2,4-trimethylpyrrolidin-1-yl)pyridine-3-carboxamide] | < 3000 nM
Cc1cccc(-c2ccc(C(=O)NS(=O)(=O)N3CC[C@H](N)C3)c(N3C[C@@H](C)CC3(C)C)n2)c1 [Compound 2339, N-[(3S)-3-aminopyrrolidin-1-yl]sulfonyl-6-(m-tolyl)-2-[(4S)-2,2,4-trimethylpyrrolidin-1-yl]pyridine-3-carboxamide] | < 3000 nM
CC1CN(c2ncccc2C(=O)NS(=O)(=O)c2cccc(N3CC4CCCC4C3)n2)C(C)(C)C1 (stereo not drawn) [Compound 2340, N—[[6-(3,3a,4,5,6,6a-hexahydro-1H-cyclopenta[c]pyrrol-2-yl)-2-pyridyl]sulfonyl]-2-(2,2,4-trimethylpyrrolidin-1-yl)pyridine-3-carboxamide] | < 3000 nM
CC1CN(c2ncccc2C(=O)NS(=O)(=O)c2cccc(Nc3ccc(F)c(F)c3)n2)C(C)(C)C1 (stereo not drawn) [Compound 2341, N—[[6-(3,4-difluoroanilino)-2-pyridyl]sulfonyl]-2-(2,2,4-trimethylpyrrolidin-1-yl)pyridine-3-carboxamide] | < 3000 nM
CC1CN(c2ncccc2C(=O)NS(=O)(=O)c2cccc(OCC3CC3)n2)C(C)(C)C1 (stereo not drawn) [Compound 2342, N—[[6-(cyclopropylmethoxy)-2-pyridyl]sulfonyl]-2-(2,2,4-trimethylpyrrolidin-1-yl)pyridine-3-carboxamide] | < 3000 nM
CCCN(CCOC)c1cccc(S(=O)(=O)NC(=O)c2cccnc2N2CC(C)CC2(C)C)n1 (stereo not drawn) [Compound 2343, N—[[6-[2-methoxyethyl(propyl)amino]-2-pyridyl]sulfonyl]-2-(2,2,4-trimethylpyrrolidin-1-yl)pyridine-3-carboxamide] | < 3000 nM
C[C@@H]1CN(c2nc(C(C)(C)C)c(C3=CCN(C(=O)CC(C)(C)C)CC3)cc2C(=O)NS(=O)(=O)c2cccc(N)n2)C(C)(C)C1 [Compound 2344, N-[(6-amino-2-pyridyl)sulfonyl]-6-tert-butyl-5-[1-(3,3-dimethylbutanoyl)-3,6-dihydro-2H-pyridin-4-yl]-2-[(4S)-2,2,4-trimethylpyrrolidin-1-yl]pyridine-3-carboxamide] | < 3000 nM
Cc1ccc(-c2ccc(C(=O)NS(=O)(=O)c3cccnc3N)c(N3C[C@@H](C)CC3(C)C)n2)cc1F [Compound 2345, N-[(2-amino-3-pyridyl)sulfonyl]-6-(3-fluoro-4-methyl-phenyl)-2-[(4S)-2,2,4-trimethylpyrrolidin-1-yl]pyridine-3-carboxamide] | < 3000 nM
CC(C)CCN(C)c1cccc(S(=O)(=O)NC(=O)c2cccnc2N2CC(C)CC2(C)C)n1 (stereo not drawn) [Compound 2346, N—[[6-[isopentyl(methyl)amino]-2-pyridyl]sulfonyl]-2-(2,2,4-trimethylpyrrolidin-1-yl)pyridine-3-carboxamide] | < 3000 nM
CC(C)COc1cc(F)cc(-c2ccc(C(=O)NS(=O)(=O)N3C[C@H]4C[C@@H]3CO4)c(N3C[C@@H](C)CC3(C)C)n2)c1 [Compound 2347, 6-(3-fluoro-5-isobutoxy-phenyl)-N—[[(1R,4R)-2-oxa-5-azabicyclo[2.2.1]heptan-5-yl]sulfonyl]-2-[(4S)-2,2,4-trimethylpyrrolidin-1-yl]pyridine-3-carboxamide] | < 3000 nM
Cc1cc(F)cc(-c2ccc(C(=O)NS(=O)(=O)c3ccc[nH]c3=O)c(N3C[C@@H](C)CC3(C)C)n2)c1 [Compound 2348, 6-(3-fluoro-5-methyl-phenyl)-N-[(2-oxo-1H-pyridin-3-yl)sulfonyl]-2-[(4S)-2,2,4-trimethylpyrrolidin-1-yl]pyridine-3-carboxamide] | < 3000 nM
C[C@@H]1CN(c2nc(-c3cc(O)cc(F)c3)ccc2C(=O)NS(=O)(=O)c2cccnc2N)C(C)(C)C1 [Compound 2349, N-[(2-amino-3-pyridyl)sulfonyl]-6-(3-fluoro-5-hydroxy-phenyl)-2-[(4S)-2,2,4-trimethylpyrrolidin-1-yl]pyridine-3-carboxamide] | 3000 to 10000 nM
CC1CN(c2ncccc2C(=O)NS(=O)(=O)c2cccc(NCC(F)F)n2)C(C)(C)C1 (stereo not drawn) [Compound 2350, N—[[6-(2,2-difluoroethylamino)-2-pyridyl]sulfonyl]-2-(2,2,4-trimethylpyrrolidin-1-yl)pyridine-3-carboxamide] | 3000 to 10000 nM
C[C@@H]1CN(c2nc(C3CCCCO3)ccc2C(=O)NS(=O)(=O)c2cccnc2N)C(C)(C)C1 (stereo partly drawn) [Compound 2351, N-[(2-amino-3-pyridyl)sulfonyl]-6-tetrahydropyran-2-yl-2-[(4S)-2,2,4-trimethylpyrrolidin-1-yl]pyridine-3-carboxamide] | < 3000 nM
C[C@@H]1CN(c2nc(-c3ccc4c(ccn4C)c3)ccc2C(=O)NS(=O)(=O)c2cccnc2N)C(C)(C)C1 [Compound 2352, N-[(2-amino-3-pyridyl)sulfonyl]-6-(1-methylindol-5-yl)-2-[(4S)-2,2,4-trimethylpyrrolidin-1-yl]pyridine-3-carboxamide] | < 3000 nM
CC1CN(c2ncccc2C(=O)NS(=O)(=O)c2cccc(Nc3cccc(OC(C)C)c3)n2)C(C)(C)C1 (stereo not drawn) [Compound 2353, N—[[6-(3-isopropoxyanilino)-2-pyridyl]sulfonyl]-2-(2,2,4-trimethylpyrrolidin-1-yl)pyridine-3-carboxamide] | < 3000 nM
CCOCCNc1cccc(S(=O)(=O)NC(=O)c2cccnc2N2CC(C)CC2(C)C)n1 (stereo not drawn) [Compound 2354, N—[[6-(2-ethoxyethylamino)-2-pyridyl]sulfonyl]-2-(2,2,4-trimethylpyrrolidin-1-yl)pyridine-3-carboxamide] | 3000 to 10000 nM
